Source: patent US11464777B2, “Pharmaceutical composition for the treatment of pulmonary arterial hypertension” (Actelion Pharmaceuticals Ltd, priority 2018, dated 2022)
pEC50: −log10 of the molar value.

What was measured:
[1] = Drug-drug interaction observations
human PXR = target: T1, human PXR (Homo sapiens, UniProt O75469); test: Activation of human PXR; format: cell-based
T1 sequence (O75469 1-434): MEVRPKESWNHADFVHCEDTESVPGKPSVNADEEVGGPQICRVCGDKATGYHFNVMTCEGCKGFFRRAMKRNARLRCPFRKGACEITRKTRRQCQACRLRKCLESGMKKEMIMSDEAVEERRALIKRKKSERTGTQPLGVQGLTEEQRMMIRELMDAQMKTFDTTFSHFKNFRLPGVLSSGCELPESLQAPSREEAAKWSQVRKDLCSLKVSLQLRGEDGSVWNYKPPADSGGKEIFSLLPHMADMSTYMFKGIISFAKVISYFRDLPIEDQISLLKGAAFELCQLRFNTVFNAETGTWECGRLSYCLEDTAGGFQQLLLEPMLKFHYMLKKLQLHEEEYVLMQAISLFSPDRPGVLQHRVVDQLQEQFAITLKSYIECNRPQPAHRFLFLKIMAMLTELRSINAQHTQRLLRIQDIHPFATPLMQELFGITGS

CYP3A4 = CYP3A4 induction in human hepatocytes; format: in vitro ADME
[2] = cited from earlier work
[3] = tested on: ET receptors (ETA and ETB); conditions: cited from earlier work
BCRP transporters = target: T2, BCRP transporters (Homo sapiens, UniProt Q9UNQ0); test: Effect on pharmacokinetics of rosuvastatin (BCRP transporters); format: in vivo; conditions: macitentan 10 mg per day o.d.
T2 construct: BCRP is an efflux pump located in the gut, liver canalicular membrane, and kidney; from tissue; host or cells: gut, liver, kidney of dosed subjects (in vivo)
T2 sequence (Q9UNQ0 1-655): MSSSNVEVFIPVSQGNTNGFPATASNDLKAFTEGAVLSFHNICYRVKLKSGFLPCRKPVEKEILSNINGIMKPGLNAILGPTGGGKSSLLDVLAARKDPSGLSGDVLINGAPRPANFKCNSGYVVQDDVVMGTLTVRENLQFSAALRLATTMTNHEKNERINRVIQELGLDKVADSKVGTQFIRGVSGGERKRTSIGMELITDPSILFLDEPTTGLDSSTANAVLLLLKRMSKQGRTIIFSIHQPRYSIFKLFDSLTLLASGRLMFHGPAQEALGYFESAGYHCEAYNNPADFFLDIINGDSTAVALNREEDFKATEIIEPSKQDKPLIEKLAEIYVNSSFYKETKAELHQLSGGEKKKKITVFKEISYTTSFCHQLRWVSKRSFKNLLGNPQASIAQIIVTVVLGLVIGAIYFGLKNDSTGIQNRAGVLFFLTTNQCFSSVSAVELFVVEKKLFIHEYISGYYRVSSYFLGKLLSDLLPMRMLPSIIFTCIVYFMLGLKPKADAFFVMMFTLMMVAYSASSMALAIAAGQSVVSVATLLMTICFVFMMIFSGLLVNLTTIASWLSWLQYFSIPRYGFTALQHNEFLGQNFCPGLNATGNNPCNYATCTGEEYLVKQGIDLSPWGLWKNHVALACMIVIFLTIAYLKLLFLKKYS
Text: BCRP is an efflux pump located in the gut, liver canalicular membrane, and kidney, and is exposed to intracellular drug concentrations in the liver and the kidney.

[4] = Effect of macitentan on decrease in hemoglobin concentration, pooled Phase I studies, Emax model; format: in vivo, human; conditions: healthy volunteers
Text: Hemoglobin measurements were pooled from 3 Phase I clinical studies in healthy volunteers:
Study AC-055-102: Investigation of the PK, PD, safety and tolerability of macitentan in male subjects (the study protocol is described in the following publication: Sidharta et al., Safety, tolerability, pharmacokinetics, and pharmacodynamics of macitentan, an endothelin receptor antagonist, in an ascending multiple-dose study in healthy subjects. J. Clin. Pharmacol. (2013), 53(11),1131-1138)
Study AC-055-116: Investigation of the PK, PD, safety and tolerability of macitentan in male Japanese subjects (the study protocol is described in the following publication: Yokoyama et al., Tolerability, Safety, Pharmacokinetics, and Pharmacodynamics of Macitentan, a New Endothelin Receptor Antagonist, in Healthy Japanese Male Subjects. Rinsho yakuri/Japanese Journal of Clinical Pharmacology and Therapeutics (2016), 47, 143-150) […]
Hemoglobin concentrations measured in the morning of Day 11 of macitentan treatment and at baseline on Day −1 were used in the analysis. […]

rats = conditions: cited from earlier work
plasma ET-1 = conditions: healthy human subjects, 1, 3, 10 and 30 mg; cited from earlier work

SMILES | Drug-Drug Interaction [1] | pEC50 (human PXR) | CYP3A4 mRNA and enzyme activity (CYP3A4) | time to peak plasma concentration ([2]; after the first dose of macitentan) | half-life in humans ([2]; humans) | plasma concentrations relative to macitentan ([2]; humans) | affinity for the ET receptors relative to parent compound [3] | effect on the pharmacokinetics of 1 mg rosuvastatin (BCRP transporters) | dose at which effect on hemoglobin decrease plateaus ([4]; Day 11 vs baseline Day -1) [mg] | maximum effect on hemoglobin decrease (Emax) ([4]; Day 11 vs baseline Day -1, nonlinear regression) | time to steady state ([2]; humans, repeated administration) | absorption into the plasma ([2]; humans) | dose of maximal or near-maximal effect in rats (rats; EMA Assessment Report) [mg/kg] | maximal effective dose in rats (rats; Iglarz 2014, Kunita-Takanezawa 2014) [mg/kg] | plasma ET-1 concentrations at steady-state (plasma ET-1)
NS(=O)(=O)Nc1ncnc(OCCOc2ncc(Br)cn2)c1-c1ccc(Br)cc1 [ACT-132577] | No Drug-Drug Interaction has been observed | 5.06 to 5.14 | concentration-dependent increases | about 30 hours | approximately 48 hours | higher plasma concentrations than macitentan | lower affinity | – | – | – | – | – | – | – | –
CCCNS(=O)(=O)Nc1ncnc(OCCOc2ncc(Br)cn2)c1-c1ccc(Br)cc1 [macitentan, propylsulfamic acid [5-(4-bromo-phenyl)-6-[2-(5-bromo-pyrimidin-2-yloxy)-ethoxy]-pyrimidin-4-yl]-amide] | No Drug-Drug Interaction has been observed | 5.92 to 5.96 | concentration-dependent increases | – | about 16 hours | – | – | has not shown any effect | 10 | around 1.23 g/dL | steady state is reached by the third day of administration | absorbed slowly | 10 | 30 | dose-dependent increase, with no further increase beyond the 10 mg oral dose
